# According to patent US20130129675A1, “INTERFERON THERAPIES IN COMBINATION WITH BLOCKADE OF STAT3 ACTIVATION” (BOARD OF REGENTS, THE UNIVERSITY OF TEXAS SYSTEM, priority 2009, published 2013):
# How the values were obtained:
# [1] = test system: intracerebral B16 melanoma; experiment: Survival of mice with established intracerebral B16 melanoma; format: in vivo, C57BL/6J mice; conditions: for median overall survival: WP1193 30 mg/kg oral gavage (sub-therapeutic) from day 3, IFN-α plasmid i.v. day 5, control 17 days; for increase in median survival: versus control (17 days)
# Text: For the in vivo experiments, we used 4- to 6-week-old female C57BL/6J mice maintained in the M. D. Anderson Cancer Center Isolation Facility in accordance with Laboratory Animal Resources Commission standards and conducted according to an Institutional Animal Care and Use Committee-approved protocol, 08-06-11831. A mouse was euthanized when it became unable to reach food or water. To induce intracerebral tumors in C57BL/6J mice, B16 cells were collected in logarithmic growth phase, washed twice with PBS, mixed with an equal volume of 10% methyl cellulose and RPMI 1640 medium and loaded into a 250-μl syringe (Hamilton, Reno, Nev.) with an attached 25-gauge needle. The needle was positioned 2 mm to the right of bregma and 4 mm below the surface of the skull at the coronal suture using a stereotactic frame (Kopf Instruments, Tujunga, Calif.). The intracerebral tumorigenic dose for the B16 cells was 5×10^2 in a total volume of 5 μl.
# pORF.IFN-α (IFN-α) plasmid was obtained from Invivogen (29). Hydrodynamic gene transfer (HGT) consisted of a single intravenous (i.v.) injection of 3 μg endotoxin-free pORF plasmid encoding murine IFN-α or pORF control plasmid DNA (InvivoGen, San Diego, Calif.) in 2 ml of saline as previously described. Liu F, Song Y, Liu D, Hydrodynamics-Based Transfection In Animals By Systemic Administration Of Plasmid DNA, Gene Therapy 1999; 6:1258-66. […] Sikora A G, Jaffarzad N, Hailemichael Y, Gelbard A, Stonier S W, Schluns K S, Frasca L, Lou Y, Liu C, Andersson H A, Hwu P, Overwijk W W, IFN-A Enhances Peptide Vaccine-Induced CD8+ T Cell Numbers, Effector Function, And Antitumor Activity, J Immunol 2009, 182:7398-407. The STAT3 inhibitor, WP1193, was synthesized and supplied by Dr. Priebe (M. D. Anderson). WP1193, a third-generation analogue inhibitor of the p-STAT3 pathway, was dissolved in a mixture of 20 parts dimethylsulfoxide (DMSO) to 80 parts polyethylene glycol (PEG) 300 (Sigma-Aldrich, St Louis, Mo.) at titered concentrations and delivered in a final volume of 100 μL. Prior to use, WP1193 was stored as a lyophilized powder at 4° C.
# Treatment for the established intracerebral tumors was with WP1193 (starting on day 3) and/or IFN-α (starting on day 5) after B16 tumor cell challenge. Mice were injected intravenously (i.v.) with 2 ml (3 μg) of IFN-α plasmid in saline once. Mice were treated with a sub-therapeutic dose of 30 mg/kg of WP1193 by oral gavage (o.g.) in a vehicle of DMSO/PEG300 (20 parts/80 parts) on […], on a […]. schedule (5 days on, 2 days off). When mice were treated in the therapeutic range of 40 mg/kg, >80% of animals survived long-term (more than 70 days) and synergy with IFN-α could not be assessed. Ten mice per experimental group were used, including treatment with the DMSO/PEG300 vehicle alone in the control group.
# Kaplan-Meier product-limit survival probability estimates of overall survival were calculated and log-rank tests were performed to compare overall survival between treatment groups and the control arm. Kaplan E L, Meier P., Nonparametric Estimation From Incomplete Observations, J Am Stat Assoc 1958; 53:457-81; Mantel N., Evaluation Of Survival Data And Two New Rank Order Statistics Arising In Its Consideration, Cancer Chemother Rep 1966; 50:163-70 Ex-vivo or in vitro data are presented as means±standard errors (SEs) of three repeated experiments. Student's t test was performed. A P value below 0.05 was considered statistically significant. […]
# [2] = test system: B16 target cells (CD3+CD8+ T effector cells); experiment: CD8+ T cell cytotoxicity assay against melanoma cells; format: cell-based, mice; conditions: WP1193 2 μM, IFN-α 20 ng/ml, 48 h, control 10.8
# Procedure: (§1) Splenocytes were prepared as described above. NK1.1+CD3− NK effector cells or CD3+CD8+ T effector cells were sorted from splenocytes on a FACSAria Cell Sorter (BD Biosciences) with FITC-conjugated anti-mouse NK1.1 (eBioscience), PE-conjugated anti-CD3, and allophycocyanin (APC)-conjugated anti-CD8 antibodies (Miltenyi Biotec, Auburn, Calif.). B16 target cells were prepared as described above. The ratio of NK1.1+CD3− NK effector cells or CD8+ T effector cells to B16 target cells was 10:1 and 5:1, respectively. In the presence of NK1.1+CD3− NK cells or CD8+ T cells, treatment groups consisted of B16 target cells alone; B16 cells with 2 μM of WP1193; B16 cells with 20 ng/ml of IFN-α; B16 cells with 2 µM of WP1193 and 20 ng/ml of IFN-α. After 48 hours of incubation, the CFSE-labeled B16 melanoma cells were removed from the plates with trypsin and analyzed by FACS. Then, B16 cells were stained with PI (BD Biosciences) to distinguish viable cells from nonviable cells. B16 cells that were stained with CFSE and PI were considered nonviable. Flow cytometric acquisition of the B16 target cells was performed with a FACSCalibur flow cytometer (BD Biosciences), and data analysis was performed using FlowJo software (TreeStar). […]
# [3] = test system: B16 target cells (NK1.1+CD3− NK effector cells); experiment: NK cell cytotoxicity assay against melanoma cells; format: cell-based, mice; conditions: WP1193 2 μM, IFN-α 20 ng/ml, 48 h, control 8.8
# Procedure: as §1
Compound,median overall survival [1] [days],animals surviving long-term (more than 70 days) ([1]; therapeutic range of 40 mg/kg) [%],increase in median survival [1] [%],% of B16 Killimg [2] [%],% of B16 Killimg [3] [%]
"N#C/C(=C\c1cccc(Br)n1)C(=O)N[C@H](c1ccccc1)C1CC1 [WP1193, (S,E)-3-(6-bromopyridin-2-yl)-2-cyano-N-(cyclopropyl(phenyl)methyl)acrylamide]",18.5,> 80,9,11.2,10.9
IFN-α,27.5,–,62,14.3,12.5
